Laboratory results from patent publication US12528778B2, “Microbiocidal derivatives” (SYNGENTA CROP PROTECTION AG, priority 2019, dated 2026).

Assays:
[1] = system: Mycosphaerella graminicola (Septoria tritici); assay: Mycosphaerella graminicola (Septoria tritici) / liquid culture (Septoria blotch); assay type: cell-based; conditions: Zymoseptoria tritici, PDB liquid culture, 24° C., growth inhibition determined photometrically 4-5 days after application, vs untreated control
Protocol: Example B12: Mycosphaerella graminicola (Septoria tritici)/Liquid Culture (Septoria Blotch) Conidia of the fungus from cryogenic storage are directly mixed into nutrient broth (PDB potato dextrose broth). After placing a (DMSO) solution of test compound into a microtiter plate (96-well format), the nutrient broth containing the fungal spores is added. The test plates are incubated at 24° C. and the inhibition of growth is determined photometrically 4-5 days after application. […] […]-48, and P-49.

[2] = system: Glomerella lagenarium (Colletotrichum lagenarium); assay: Glomerella lagenarium (Colletotrichum lagenarium) / liquid culture (anthracnose); assay type: cell-based; conditions: Colletotrichum orbiculare, PDB liquid culture, 24° C., growth inhibition measured photometrically 3-4 days after application, vs untreated control
Protocol: Example B2: Glomerella lagenarium (Colletotrichum lagenarium)/Liquid Culture (Anthracnose) Conidia of the fungus from cryogenic storage are directly mixed into nutrient broth (PDB potato dextrose broth). After placing a (DMSO) solution of test compound into a microtiter plate (96-well format), the nutrient broth containing the fungal spores is added. The test plates are incubated at 24° C. and the inhibition of growth is measured photometrically 3-4 days after application. […] […]-49, and P-50.

[3] = system: Monographella nivalis (Microdochium nivale); assay: Monographella nivalis (Microdochium nivale) / liquid culture (foot rot cereals); assay type: cell-based; conditions: PDB liquid culture, 24° C., growth inhibition determined photometrically 4-5 days after application, vs untreated control
Protocol: Example B5: Monographella nivalis (Microdochium nivale)/Liquid Culture (Foot Rot Cereals) Conidia of the fungus from cryogenic storage are directly mixed into nutrient broth (PDB potato dextrose broth). After placing a (DMSO) solution of test compound into a microtiter plate (96-well format), the nutrient broth containing the fungal spores is added. The test plates are incubated at 24° C. and the inhibition of growth is determined photometrically 4-5 days after application. […] […]-49, and P-50.

[4] = system: Magnaporthe grisea (Pyricularia oryzae); assay: whole plant or invertebrate; assay type: in vivo; conditions: foliar, read-out: control of Magnaporthe grisea

COc1ncc(NC2CCC2)nc1C(=O)NC1CCC1(C)C (stereo not drawn) [Compound P-2, 6-(cyclobutylamino)-N-(2,2-dimethylcyclobutyl)-3-methoxy-pyrazine-2-carboxamide]
inhibition of growth at 20 ppm [1]: ≥ 80%
inhibition of growth at 20 ppm [2]: ≥ 80%
inhibition of growth at 20 ppm [3]: ≥ 80%

COc1ncc(NC2CC2)nc1C(=O)NC1CCC1(C)C (stereo not drawn) [Compound P-3, 6-(cyclopropylamino)-N-(2,2-dimethylcyclobutyl)-3-methoxy-pyrazine-2-carboxamide]
inhibition of growth at 20 ppm [2]: ≥ 80%
inhibition of growth at 20 ppm [3]: ≥ 80%

COc1ncc(Nc2cc(F)cc(F)c2)nc1C(=O)NC1CCN(c2cccc(OC(F)(F)F)c2)C1=O (stereo not drawn) [Compound P-6, 6-(3,5-difluoroanilino)-3-methoxy-N-[2-oxo-1-[3-(trifluoromethoxy)phenyl]pyrrolidin-3-yl]pyrazine-2-carboxamide]
inhibition of growth at 20 ppm [2]: ≥ 80%
pest or weed control at 200 ppm [4]: ≥ 80%
inhibition of growth at 20 ppm [3]: ≥ 80%

COc1ncc(Nc2cc(F)cc(F)c2)nc1C(=O)NC1(c2ccccn2)CC1 [Compound P-7, 6-(3,5-difluoroanilino)-3-methoxy-N-[1-(2-pyridyl)cyclopropyl] pyrazine-2-carboxamide]
inhibition of growth at 20 ppm [3]: ≥ 80%

COc1ncc(Nc2cnsc2)nc1C(=O)NCCc1ccc(OC(F)(F)F)cc1 [Compound P-10]
inhibition of growth at 20 ppm [2]: ≥ 80%
inhibition of growth at 20 ppm [3]: ≥ 80%

COc1ncc(Nc2cnsc2)nc1C(=O)NCC1(C(F)(F)F)CC1 [Compound P-11]
inhibition of growth at 20 ppm [1]: ≥ 80%
inhibition of growth at 20 ppm [2]: ≥ 80%
inhibition of growth at 20 ppm [3]: ≥ 80%

COc1ncc(Nc2cnsc2)nc1C(=O)NCc1cccc2c1OC(F)(F)O2 [Compound P-12, N-[(2,2-difluoro-1,3-benzodioxol-4-yl)methyl]-6-(isothiazol-4-ylamino)-3-methoxy-pyrazine-2-carboxamide]
inhibition of growth at 20 ppm [1]: ≥ 80%
inhibition of growth at 20 ppm [2]: ≥ 80%
inhibition of growth at 20 ppm [3]: ≥ 80%

COc1ncc(Nc2cnsc2)nc1C(=O)NC1CCc2ccc(C(F)(F)F)cc21 (stereo not drawn) [Compound P-14, 6-(isothiazol-4-ylamino)-3-methoxy-N-[6-(trifluoromethyl)indan-1-yl]pyrazine-2-carboxamide]
inhibition of growth at 20 ppm [1]: ≥ 80%
inhibition of growth at 20 ppm [2]: ≥ 80%
pest or weed control at 200 ppm [4]: ≥ 80%
inhibition of growth at 20 ppm [3]: ≥ 80%

COc1ncc(Nc2cnsc2)nc1C(=O)NC1CCc2cc(C(F)(F)F)ccc21 (stereo not drawn) [Compound P-15, 6-(isothiazol-4-ylamino)-3-methoxy-N-[5-(trifluoromethyl)indan-1-yl]pyrazine-2-carboxamide]
inhibition of growth at 20 ppm [1]: ≥ 80%
inhibition of growth at 20 ppm [2]: ≥ 80%
inhibition of growth at 20 ppm [3]: ≥ 80%

CCON=C(CNC(=O)c1nc(Nc2cc(F)cc(F)c2)cnc1OC)c1ncc(Cl)cc1Cl [Compound P-17, N-[2-(3,5-dichloro-2-pyridyl)-2-ethoxyimino-ethyl]-6-(3,5-difluoroanilino)-3-methoxy-pyrazine-2-carboxamide]
inhibition of growth at 20 ppm [2]: ≥ 80%
inhibition of growth at 20 ppm [3]: ≥ 80%

COc1ncc(Nc2cc(F)cc(F)c2)nc1C(=O)NCCc1ccc(OC(F)(F)F)cc1 [Compound P-18, 6-(3,5-difluoroanilino)-3-methoxy-N-[2-[4-(trifluoromethoxy)phenyl]ethyl]pyrazine-2-carboxamide]
inhibition of growth at 20 ppm [2]: ≥ 80%
inhibition of growth at 20 ppm [3]: ≥ 80%

COc1ncc(Nc2cc(F)cc(F)c2)nc1C(=O)NCC1(c2ccc(C(F)(F)F)cn2)CC1 [Compound P-19, 6-(3,5-difluoroanilino)-3-methoxy-N-[[1-[5-(trifluoromethyl)-2-pyridyl]cyclopropyl]methyl]pyrazine-2-carboxamide]
inhibition of growth at 20 ppm [2]: ≥ 80%
pest or weed control at 200 ppm [4]: ≥ 80%
inhibition of growth at 20 ppm [3]: ≥ 80%

COc1ncc(Nc2cc(F)cc(F)c2)nc1C(=O)NCc1c(Cl)cncc1Cl [Compound P-23, N-[(3.5-dichloro-4-pyridyl)methyl]-6-(3,5-difluoroanilino)-3-methoxy-pyrazine-2-carboxamide]
inhibition of growth at 20 ppm [2]: ≥ 80%
pest or weed control at 200 ppm [4]: ≥ 80%

COc1ncc(Nc2cc(F)cc(F)c2)nc1C(=O)NCC1COc2ccccc21 (stereo not drawn) [Compound P-26, 6-(3,5-difluoroanilino)-N-(2,3-dihydrobenzofuran-3-yimethyl)-3-methoxy-pyrazine-2-carboxamide]
inhibition of growth at 20 ppm [2]: ≥ 80%
pest or weed control at 200 ppm [4]: ≥ 80%

COc1ncc(Nc2cc(F)cc(F)c2)nc1C(=O)NCc1cccc2ccnn12 [Compound P-27]
inhibition of growth at 20 ppm [2]: ≥ 80%

COc1ncc(Nc2cc(F)cc(F)c2)nc1C(=O)NC1CCc2ccc(C(F)(F)F)cc21 (stereo not drawn) [Compound P-31, 6-(3,5-difluoroanilino)-3-methoxy-N-[6-(trifluoromethyl)indan-1-yl]pyrazine-2-carboxamide]
inhibition of growth at 20 ppm [1]: ≥ 80%
inhibition of growth at 20 ppm [2]: ≥ 80%

COc1ncc(Nc2cc(F)cc(F)c2)nc1C(=O)NC1CCc2cc(C(F)(F)F)ccc21 (stereo not drawn) [Compound P-32, 6-(3,5-difluoroanilino)-3-methoxy-N-[5-(trifluoromethyl)indan-1-yl]pyrazine-2-carboxamide]
inhibition of growth at 20 ppm [1]: ≥ 80%
inhibition of growth at 20 ppm [2]: ≥ 80%
inhibition of growth at 20 ppm [3]: ≥ 80%

CCON=C(CNC(=O)c1nc(Nc2cc(F)nc(F)c2)cnc1OC)c1ncc(Cl)cc1Cl [Compound P-33, N-[2-(3,5-dichloro-2-pyridyl)-2-ethoxyimino-ethyl]-6-[(2,6-difluoro-4-pyridyl)amino]-3-methoxy-pyrazine-2-carboxamide]
inhibition of growth at 20 ppm [2]: ≥ 80%

COc1ncc(Nc2cc(F)nc(F)c2)nc1C(=O)NCc1ccc(Oc2ccccc2)cc1 [Compound P-36, 6-[(2,6-difluoro-4-pyridyl)amino]-3-methoxy-N-[(4-phenoxyphenyl)methyl]pyrazine-2-carboxamide]
inhibition of growth at 20 ppm [2]: ≥ 80%
pest or weed control at 200 ppm [4]: ≥ 80%

COc1ncc(Nc2cnsc2)nc1C(=O)NC1CCC1(C)C (stereo not drawn) [Compound P-42, (isothiazol-4-ylamino)-N-(2,2-dimethylcyclobutyl)-6-3-methoxy-pyrazine-2-carboxamide]
inhibition of growth at 20 ppm [1]: ≥ 80%
pest or weed control at 200 ppm [4]: ≥ 80%
inhibition of growth at 20 ppm [3]: ≥ 80%

CC1(C)CCC1NC(=O)c1cncc(Nc2cc(F)nc(F)c2)n1 (stereo not drawn) [Compound P-46, 6-[(2,6-difluoro-4-pyridyl)amino]-N-(2,2-dimethylcyclobutyl) pyrazine-2-carboxamide]
inhibition of growth at 20 ppm [1]: ≥ 80%
inhibition of growth at 20 ppm [2]: ≥ 80%
inhibition of growth at 20 ppm [3]: ≥ 80%

Cc1ncc(Nc2cc(F)cc(F)c2)nc1C(=O)NC1CCC1(C)C (stereo not drawn) [Compound P-47, 6-(3,5-difluoroanilino)-N-(2,2-dimethylcyclobutyl)-3-methyl-pyrazine-2-carboxamide]
inhibition of growth at 20 ppm [2]: ≥ 80%
pest or weed control at 200 ppm [4]: ≥ 80%
inhibition of growth at 20 ppm [3]: ≥ 80%

CC1(NC(=O)c2cncc(Nc3cc(F)nc(F)c3)n2)CCCC1 [Compound P-49, 6-[(2,6-difluoro-4-pyridyl)amino]-N-(1-methylcyclopentyl) pyrazine-2-carboxamide]
inhibition of growth at 20 ppm [1]: ≥ 80%
inhibition of growth at 20 ppm [2]: ≥ 80%
pest or weed control at 200 ppm [4]: ≥ 80%
inhibition of growth at 20 ppm [3]: ≥ 80%
